According to patent US20090285898A1, “COMBINATION OF DEHYDROEPIANDROSTERONE OR DEHYDROEPIANDROSTERONE-SULFATE WITH AN ANTICHOLINERGIC BRONCHODILATOR FOR TREATMENT OF ASTHMA OR CHRONIC OBSTRUCTIVE PULMONARY DISEASE” (priority 2003, published 2009):
Values joined by “and” are separate entries in the source; they are usually repeats but may differ in a detail not shown here. Equal entries are not always repeated.

How the values were obtained:
[1] = system: Human ASM cells; test: EGF induced ASM proliferation ([3H]-thymidine incorporation); format: cell-based; details: for effect on EGF response (ASM proliferation): Mch 10 μM, atropine alone, DHEA-S in the presence or absence of Mch and atropine
Experimental: Human ASM cells were obtained from the distal trachea of transplant donors in compliance with the University of Pennsylvania's Institutional Review Board. Distal trachealis was dissected free of connective tissue and enzymatically digested to yield approximately 1×10^4 human ASM cells. These cells were then grown to confluence in 10% fetal bovine serum and quiesced in serum-free media containing 1% bovine serum albumin for 24 hours. […] After the initial incubation, cells were then exposed to [^3H]-thymidine and DNA synthesis was measured over 24 hours using thymidine incorporation. The cells were scraped and placed on filters which were then counted using a beta counter. All experiments were repeated in a minimum of three human ASM cell lines. All conditions per experiment were run with six replicates.

[2] = Particle size after jet milling or spray drying (Malvern Mastersizer X, light microscope); format: physicochemical; details: two batches
Experimental: Approximately 1 g sample was passed through the jet mill, once, and approximately 2 g sample were passed through the jet mill twice. […] The resulting solution was sonicated for 3 minutes and appeared fully dispersed. The dispersed solutions were tested on a Malvern Mastersizer X with a small volume sampler (SVS) attachment. One sample of dispersed material was tested 5 times. The median particle size or D (v, 0.5) of unmilled material was 52.56 μm and the % RSD (relative standard deviation) was 7.61 for the 5 values. The D (v, 0.5) for a single pass through the jet mill was 3.90 μm and the % RSD was 1.27, and the D (v, 0.5) from a double pass through the jet mill 3.25 μm and the % RSD was 3.10.
The solution was spray-dried with a B-191 Mini Spray-Drier (Buchi, Flawil, Switzerland) with an inlet temperature of 55° C., outlet temperature of 40° C., at 100% aspirator, at 10% pump, nitrogen flow at 40 mbar and spray flow at 600 units. The spray-dried product was suspended in hexane and Span85 surfactant added to reduce agglomeration. The dispersions were sonicated with cooling for 3-5 minutes for complete dispersion and the dispersed solutions tested on a Malvern Mastersizer X with a Small Volume Sampler (SVS) attachment. […] Visual examination by light microscope of the dispersions of each batch confirmed that spray drying produced small respirable size particles. […]

[3] = system: HT-29 SF cells; test: Reversal of DHEA effect on cell cycle; format: cell-based, human; details: 25 FM DHEA; supplemented medium; 48 and 72 hours
[4] = system: HT-29 SF cells; test: DHEA effect on cell growth; format: cell-based, human; details: 0, 12.5, 25, 50, or 200 μM; 0-72 hours
[5] = Short-term solution stability of DHEA-S nebulizer formulation; format: physicochemical; details: 10 mg/mL in 0.12% NaCl
Experimental: Aliquots of this solution are filled into clear glass vials and stored at RT (24-26° C.) and at 40° C. The samples are checked daily for DHEA-S content, DHEA content, and appearance. For each time point, duplicate samples are withdrawn and diluted from each vial. […] The study is stopped on day three. […] The solution should easily be stable for the day of reconstitution in a clinical trial. The following section describes the aerosol properties of this formulation.

[6] = Nebulizer studies (Pari LC Plus, by-pass collector and impactor); details: 0.12% NaCl
Experimental: The nebulizer is filled with 5 mL of solution and nebulization is continued until the output became visually insignificant (4½ to 5 min.). Nebulizer solutions are tested using a California Instruments AS-6 6-stage impactor with a USP throat. The impactor is run at 30 L/min for 8 s to collect a sample following one minute of nebulization time. At all other times during the experiment, the aerosol is drawn through the by-pass collector at approximately 33 L/min. The collection apparatus, nebulizer, and impactor are rinsed with mobile phase and assayed by HPLC. […] This volume is selected as the practical upper limit for use in a clinical study.

[7] = Solubility of DHEA-S in NaCl solutions; format: physicochemical; details: 20 mM Na+; Ksp 1316 mM^2; 15° C.
Text: Inhalation of pure water can produce a cough stimulus. […] The temperature effect is weaker at high NaCl concentrations.

CC(=O)OC(C)C[N+](C)(C)C (centres unmarked)
effect on EGF response (ASM proliferation) [1]: further augmented

C[C@]12CC[C@H](OS(=O)(=O)[O-])CC1=CC[C@@H]1[C@@H]2CC[C@]2(C)C(=O)CC[C@@H]12.[Na+] [Anhydrous DHEA-S]
mean particle size of spray dried material ([2]; Malvern Mastersizer X): 5.07±0.70 μm and 6.66±0.91 μm | mean particle size of spray dried material ([2]; visual examination by light microscope): 2.4 μm and 2.0 μm

CC(C)CCC[C@@H](C)[C@H]1CC[C@H]2[C@@H]3CC=C4C[C@@H](O)CC[C@]4(C)[C@H]3CC[C@]12C [CH, cholesterol]
prevention of DHEA-induced S phase depletion (G1 arrest) [3]: very little effect at 48 hours and no effect at 72 hours

C[C@]12CC[C@H](O)CC1=CC[C@@H]1[C@@H]2CC[C@]2(C)C(=O)CC[C@@H]12 [DHEA, 3β-hydroxyandrost-5-en-17-one]
effect on growth of HT-29 SF cells [4]: time- and dose-dependent inhibition of growth

C[C@]12CC[C@H](OS(=O)(=O)[O-])CC1=CC[C@@H]1[C@@H]2CC[C@]2(C)C(=O)CC[C@@H]12.[Na+] [DHEA-S, sodium dehydroepiandrostenone sulfate]
solution appearance on storage ([5]; 40° C.): became cloudy after two days of storage | solution appearance on storage ([5]; RT (24-26° C.)): slight precipitate is observed on the third day | highest solution concentration for clinical trial formulation (no precipitate during nebulization) [6]: approximately 7.5 mg/mL | effect on EGF response (ASM proliferation) [1]: attenuate the EGF response | calculated DHEA-S solution concentration [7]: 27.5 mM

C[C@@](O)(CCO)CC(=O)O [MVA, mevalonic acid]
prevention of DHEA-induced S phase depletion (G1 arrest) [3]: partially prevented this effect in the initial 48 hours but not after 72 hours

CN1[C@@H]2CC[C@H]1C[C@@H](OC(=O)C(CO)c1ccccc1)C2 (some centres unmarked) [atropine]
effect on Mch augmentation of EGF response ([1]; EGF plus 10 μM Mch): reverse the effects of Mch | effect on EGF response (ASM proliferation) [1]: no effect on EGF response

EGF: growth factor used to induce DNA synthesis in human ASM cells (NSDSECPLSHDGYCLHDGVCMYIEALDKYACNCVVGYIGERCQYRDLKWWELR; Epidermal growth factor; UniProt P01133 971-1023, looked up)
increase in ASM proliferation ([1]; EGF (1 ng/ml), thymidine incorporation): 8 fold
